{"source": "paper PMC9958325", "about": "(Nature Communications, 2023)", "key": {"[1]": {"test": "Pharmacokinetic study in PXB-mice (human liver-chimeric)"}, "HeLa-ACE2-TMPRSS2 cells": {"system": "HeLa-ACE2-TMPRSS2 cells", "test": "Intracellular concentrations of compounds (LC/MS), HeLa-ACE2-TMPRSS2 cells", "conditions": "for Intracellular amount, avg / Intracellular amount, individual: 6 h; for intracellular compound, /1x10^6: calculated value per cell count; for intracellular compound, calculated value /20uL: from AUC against pmol standard curve"}, "[2]": {"conditions": "Hela ACE2 TMPRSS2, drug 10, duplicates"}, "[3]": {"conditions": "Hela ACE2 TMPRSS2, drug 50, duplicates"}, "[4]": {"conditions": "Hela ACE2 TMPRSS2, drug 100, duplicates"}}, "note": "Several values for one entry are separate records, joined by “and”; a condition that tells them apart may be missing. Identical values can stand only once.", "data": [{"smiles": "CC(C)(C)[C@H](NC(=O)C(F)(F)F)C(=O)N1C[C@H]2[C@@H]([C@H]1C(=O)N[C@H](C#N)C[C@@H]1CCNC1=O)C2(C)C", "note": "[Nirmatrelvir, reference compound]", "values": [{"measurement": "Plasma concentration", "setting": "[1]; PXB-mice, i.v. 10 mg/kg, 480 min, individual mice, 10 mg/kg", "result": "1.3 ng/mL and 2.2 ng/mL"}, {"measurement": "Plasma concentration", "setting": "[1]; PXB-mice, i.v. 10 mg/kg, 8 hr, individual mice", "result": 0, "unit": "ng/mL"}, {"measurement": "Plasma concentration", "setting": "[1]; PXB-mice, i.v. 10 mg/kg, 1440 min, individual mice, 10 mg/kg", "result": "0.2 ng/ml (2×) and 0.9 ng/ml"}, {"measurement": "Plasma concentration", "setting": "[1]; PXB-mice, i.v. 10 mg/kg, 24 hr, individual mice", "result": 0, "unit": "ng/mL"}, {"measurement": "Plasma concentration", "setting": "[1]; PXB-mice, p.o. 10 mg/kg, 10 min, individual mice, 10 mg/kg", "result": "889.5 ng/mL and 980.6 ng/mL"}, {"measurement": "Plasma concentration", "setting": "[1]; PXB-mice, p.o. 10 mg/kg, 0.17 hr, individual mice, 10 mg/kg", "result": "890 ng/mL and 980 ng/mL"}, {"measurement": "Plasma concentration", "setting": "[1]; PXB-mice, p.o. 10 mg/kg, 60 min, individual mice, 10 mg/kg", "result": "653.1 ng/mL and 318.8 ng/mL and 407 ng/mL"}, {"measurement": "Plasma concentration", "setting": "[1]; PXB-mice, p.o. 10 mg/kg, 1 hr, individual mice, 10 mg/kg", "result": "650 ng/mL and 320 ng/mL and 410 ng/mL"}, {"measurement": "Plasma concentration", "setting": "[1]; PXB-mice, p.o. 10 mg/kg, 240 min, individual mice, 10 mg/kg", "result": "34.6 ng/mL and 30.7 ng/mL"}, {"measurement": "Plasma concentration", "setting": "[1]; PXB-mice, p.o. 10 mg/kg, 4 hr, individual mice, 10 mg/kg", "result": 30, "unit": "ng/mL"}, {"measurement": "Plasma concentration", "setting": "[1]; PXB-mice, p.o. 10 mg/kg, 480 min, individual mice, 10 mg/kg", "result": "4.4 ng/mL and 7.4 ng/mL and 18.7 ng/mL"}, {"measurement": "Plasma concentration", "setting": "[1]; PXB-mice, p.o. 10 mg/kg, 8 hr, individual mice, 10 mg/kg", "result": "0 ng/mL and 10 ng/mL and 20 ng/mL"}, {"measurement": "Plasma concentration", "setting": "[1]; PXB-mice, p.o. 10 mg/kg, 1440 min, individual mice, 10 mg/kg", "result": "0.6 ng/mL and 0.5 ng/mL"}, {"measurement": "Plasma concentration", "setting": "[1]; PXB-mice, p.o. 10 mg/kg, 24 hr, individual mice", "result": 0, "unit": "ng/mL"}, {"measurement": "Oral F", "setting": "[1]; male PXB-mouse 10 mg/kg i.v. and p.o., dose-normalized AUC ratio", "result": "56¶ %"}, {"measurement": "concentration at 10 min", "setting": "[1]; male, PXB (human liver-chimeric), mouse, plasma, iv, 10 mg/kg, Plasma concentration, PXB-mice, i.v. 10 mg/kg, 10 min, individual mice", "result": 4250, "unit": "ng/mL"}, {"measurement": "concentration at 0.17 hr", "setting": "[1]; male, PXB (human liver-chimeric), mouse, plasma, iv, 10 mg/kg, Plasma concentration, PXB-mice, i.v. 10 mg/kg, 0.17 hr, individual mice", "result": 4250, "unit": "ng/mL"}, {"measurement": "concentration at 60 min", "setting": "[1]; male, PXB (human liver-chimeric), mouse, plasma, iv, 10 mg/kg, Plasma concentration, PXB-mice, i.v. 10 mg/kg, 60 min, individual mice", "result": 344, "unit": "ng/mL"}, {"measurement": "concentration at 1 hr", "setting": "[1]; male, PXB (human liver-chimeric), mouse, plasma, iv, 10 mg/kg, Plasma concentration, PXB-mice, i.v. 10 mg/kg, 1 hr, individual mice", "result": 340, "unit": "ng/mL"}, {"measurement": "concentration at 480 min", "setting": "[1]; male, PXB (human liver-chimeric), mouse, plasma, iv, 10 mg/kg, Plasma concentration, PXB-mice, i.v. 10 mg/kg, 480 min, individual mice", "result": 2.2, "unit": "ng/mL"}, {"measurement": "concentration at 8 hr", "setting": "[1]; male, PXB (human liver-chimeric), mouse, plasma, iv, 10 mg/kg, Plasma concentration, PXB-mice, i.v. 10 mg/kg, 8 hr, individual mice", "result": 0, "unit": "ng/mL"}, {"measurement": "concentration at 24 hr", "setting": "[1]; male, PXB (human liver-chimeric), mouse, plasma, iv, 10 mg/kg, Plasma concentration, PXB-mice, i.v. 10 mg/kg, 24 hr, individual mice", "result": 0, "unit": "ng/mL"}, {"measurement": "Cmax", "setting": "[1]; male, PXB (human liver-chimeric), mouse, plasma, po, 10 mg/kg", "result": 1160, "unit": "ng/mL"}, {"measurement": "concentration at 10 min", "setting": "[1]; male, PXB (human liver-chimeric), mouse, plasma, po, 10 mg/kg, Plasma concentration, PXB-mice, p.o. 10 mg/kg, 10 min, individual mice", "result": 1600, "unit": "ng/mL"}, {"measurement": "concentration at 0.17 hr", "setting": "[1]; male, PXB (human liver-chimeric), mouse, plasma, po, 10 mg/kg, Plasma concentration, PXB-mice, p.o. 10 mg/kg, 0.17 hr, individual mice", "result": 1600, "unit": "ng/mL"}, {"measurement": "concentration at 240 min", "setting": "[1]; male, PXB (human liver-chimeric), mouse, plasma, po, 10 mg/kg, Plasma concentration, PXB-mice, p.o. 10 mg/kg, 240 min, individual mice", "result": 47.2, "unit": "ng/mL"}, {"measurement": "concentration at 4 hr", "setting": "[1]; male, PXB (human liver-chimeric), mouse, plasma, po, 10 mg/kg, Plasma concentration, PXB-mice, p.o. 10 mg/kg, 4 hr, individual mice", "result": 50, "unit": "ng/mL"}, {"measurement": "concentration at 1440 min", "setting": "[1]; male, PXB (human liver-chimeric), mouse, plasma, po, 10 mg/kg, Plasma concentration, PXB-mice, p.o. 10 mg/kg, 1440 min, individual mice", "result": 0.6, "unit": "ng/mL"}, {"measurement": "concentration at 24 hr", "setting": "[1]; male, PXB (human liver-chimeric), mouse, plasma, po, 10 mg/kg, Plasma concentration, PXB-mice, p.o. 10 mg/kg, 24 hr, individual mice", "result": 0, "unit": "ng/mL"}, {"measurement": "Plasma concentration", "setting": "[1]; p.o., 10 min, individual animals (3 per time point), LC/MS/MS", "result": "889.46 ng/mL and 980.64 ng/mL"}, {"measurement": "Plasma concentration", "setting": "[1]; p.o., 60 min, individual animals (3 per time point), LC/MS/MS", "result": "653.07 ng/mL and 318.79 ng/mL and 406.97 ng/mL"}, {"measurement": "Plasma concentration", "setting": "[1]; p.o., 240 min, individual animals (3 per time point), LC/MS/MS", "result": "34.58 ng/mL and 30.74 ng/mL"}, {"measurement": "Plasma concentration", "setting": "[1]; p.o., 480 min, individual animals (3 per time point), LC/MS/MS", "result": "4.42 ng/mL and 7.44 ng/mL and 18.67 ng/mL"}, {"measurement": "Plasma concentration", "setting": "[1]; p.o., 1440 min, individual animals (3 per time point), LC/MS/MS", "result": "0.61 ng/mL and 0.54 ng/mL"}, {"measurement": "Intracellular amount, avg", "setting": "HeLa-ACE2-TMPRSS2 cells; Hela ACE2 TMPRSS2, 10uM", "result": "0.5065 pmol(total)"}, {"measurement": "Intracellular amount, individual", "setting": "HeLa-ACE2-TMPRSS2 cells; Hela ACE2 TMPRSS2, 10uM", "result": "0.5088 pmol(total) and 0.5041 pmol(total)"}, {"measurement": "Intracellular amount, avg", "setting": "HeLa-ACE2-TMPRSS2 cells; Hela ACE2 TMPRSS2, 50uM", "result": "1.799 pmol(total)"}, {"measurement": "Intracellular amount, individual", "setting": "HeLa-ACE2-TMPRSS2 cells; Hela ACE2 TMPRSS2, 50uM", "result": "1.518 pmol(total) and 2.08 pmol(total)"}, {"measurement": "Intracellular amount, avg", "setting": "HeLa-ACE2-TMPRSS2 cells; Hela ACE2 TMPRSS2, 100uM", "result": "3.821 pmol(total)"}, {"measurement": "Intracellular amount, individual", "setting": "HeLa-ACE2-TMPRSS2 cells; Hela ACE2 TMPRSS2, 100uM", "result": "3.049 pmol(total) and 4.592 pmol(total)"}, {"measurement": "intracellular compound, pmol(total)", "setting": "HeLa-ACE2-TMPRSS2 cells; [2]", "result": "0.5088 pmol and 0.5041 pmol"}, {"measurement": "intracellular compound, /1x10^6", "setting": "HeLa-ACE2-TMPRSS2 cells; [2]", "result": "0.2035 /1x10^6 and 0.2016 /1x10^6"}, {"measurement": "intracellular compound, calculated value /20uL", "setting": "HeLa-ACE2-TMPRSS2 cells; [2]", "result": "0.53 /20uL and 0.52 /20uL"}, {"measurement": "intracellular compound, pmol(total)", "setting": "HeLa-ACE2-TMPRSS2 cells; [3]", "result": "1.518 pmol and 2.08 pmol"}, {"measurement": "intracellular compound, /1x10^6", "setting": "HeLa-ACE2-TMPRSS2 cells; [3]", "result": "0.6073 /1x10^6 and 0.832 /1x10^6"}, {"measurement": "intracellular compound, calculated value /20uL", "setting": "HeLa-ACE2-TMPRSS2 cells; [3]", "result": "1.70 /20uL and 1.83 /20uL"}, {"measurement": "intracellular compound, pmol(total)", "setting": "HeLa-ACE2-TMPRSS2 cells; [4]", "result": "3.049 pmol and 4.592 pmol"}, {"measurement": "intracellular compound, /1x10^6", "setting": "HeLa-ACE2-TMPRSS2 cells; [4]", "result": "1.22 /1x10^6 and 1.837 /1x10^6"}, {"measurement": "intracellular compound, calculated value /20uL", "setting": "HeLa-ACE2-TMPRSS2 cells; [4]", "result": "3.90 /20uL and 4.04 /20uL"}]}]}
